Some results are limits rather than exact numbers.

This note sets out measurements from PubChem BioAssay AID720570 (Broad Institute, 2013).

For the assay, the system named is TC71 Ewing sarcoma viability, CellTiter-Glo ATP, 72 h. The experiment in a line: cytotoxicity in EWS/Fli1-dependent TC71 cells – cell-based, luminescence, cherry-picked samples, retest, confirmation (AID 720570).
As to `O=c1[nH]c(=O)n([C@H]2C[C@H](O)[C@@H](CO)O2)cc1C(F)(F)F`, the AC35 is 2.91 µM. Regarding `CCN(Cc1ccccc1)c1ccc(/C=N/N=C(N)N)cc1`, the AC35 was 15.2 µM.

Take `O=c1[nH]c(=O)n([C@H]2C[C@H](O)[C@@H](CO)O2)cc1F`: the AC35 is 0.282 µM.

For the compound `COC(=O)CC1(C(=O)OC)Oc2ccc(Br)cc2C(=O)N1c1cccc(Cl)c1Cl` (configuration not stated), the AC35 is 24.9 µM. Consider `COc1ccc([Si](C)(C)[C@H]2[C@H](CCO)O[C@@]3(C(=O)N(c4ccccc4)c4ccccc43)[C@@H]2C)cc1`, for which the AC35 was 12.8 µM. Consider `CCN1CCS/C1=C\C=C\C1=[N+](CC)CCS1`, for which the AC35 is 9.96 µM.

Regarding `CCCNC(=O)N1[C@H](C#N)[C@H](c2ccc(C#Cc3cccc(F)c3)cc2)[C@H]1CO`, the AC35 was 16.1 µM. Turning to `C=C1C(=O)OC2C1CCC(C)C1(O)C=CC(=O)C21C` (configuration not stated), the AC35 was 12.6 µM. As for `C[C@@H]1CN([C@@H](C)CO)C(=O)Cc2cc(N(C)C)ccc2O[C@@H]1CN(C)Cc1ccccc1`, the figure is 17.7 µM; as for `CCN1/C(=C/C=C/c2oc3ccc(-c4ccccc4)cc3[n+]2CC)Oc2ccc(-c3ccccc3)cc21`, 2.39 µM; as for `CC(C)(C)[S@](=O)N1Cc2cc(C(=O)NCC(F)(F)F)nc(-c3cccc(-c4cccc(F)c4)c3)c2[C@@H]1CCO`, 16.5 µM. Turning to `C#CCOCCOCCOCCNc1nc(N2CCN(C(=O)CCCCCCCCCCNC(=O)Cn3cc(C[C@@H](C)O)nn3)CC2)nc(N2CCN(C(=O)CCCCCCCCCCNC(=O)[C@H](CO)n3cc(CCCSC)nn3)CC2)n1`, the AC35 is 21.5 µM. As to `C[C@H]1CN([C@@H](C)CO)S(=O)(=O)c2ccc(C#CC(C)(C)O)cc2O[C@@H]1CN(C)Cc1ccc(-c2ccccc2)cc1`, the AC35 is 0.414 µM. For the compound `C[C@H]1CN([C@@H](C)CO)C(=O)Cc2cc(NC(=O)C3CC3)ccc2O[C@H]1CN(C)S(=O)(=O)c1ccc(Cl)cc1`, the AC35 was 17.3 µM.

With `Nc1nc2cc3c(cc2cc1C(=O)NCCc1c[nH]c2ccccc12)OCO3`, the AC35 is 13.7 µM.

With `Cc1cc(-c2nc3ccccc3s2)ccc1N`, the AC35 was 17.7 µM. The value for `Oc1c(C(c2ccc(Cl)cc2)N2CCCC2)cc(Cl)c2cccnc12` (configuration not stated) was 6.32 µM. `C[C@@H]1CN([C@@H](C)CO)C(=O)Cc2cc(NC(=O)C3CCCCC3)ccc2O[C@H]1CN(C)Cc1ccc(C(=O)Nc2ccccc2N)cc1`: the AC35 was 15.6 µM. Consider `O=c1c(Cl)cc(Cl)nn1-c1ccccc1`, for which the AC35 was 13 µM. `CN1C(=O)c2cc(NC(=O)c3ccc(Cl)cc3)ccc2OC[C@@H]2O[C@@H](CC(=O)NCc3cccc(F)c3)CC[C@H]21`: the AC35 was 5.21 µM. On to `Cc1cc(C(=O)Nc2ccc3c(c2)C(=O)N(C)[C@@H]2CC[C@H](CC(=O)N[C@H](C)c4ccccc4)O[C@H]2CO3)no1`, for which the AC35 was 14 µM. Regarding `N#CC(C#N)=C1C=CC=CN1/C(=C\c1ccco1)C(=O)c1ccc(Cl)cc1`, the AC35 is 8.19 µM.

As to `C[C@@H]1CN([C@@H](C)CO)C(=O)c2cccc(N(C)C)c2O[C@@H]1CN(C)Cc1ccc(C(=O)Nc2ccccc2N)cc1`, the AC35 is 21.1 µM. Consider `Cc1nc(N)nc(N)c1/C=C/C(C)(C)c1ccc(Cl)cc1`, for which the AC35 is < 0.011 µM. Regarding `O=C(NCc1ccc(F)cc1)N1[C@H]2CC[C@@H]1C=C(c1ccc(F)cc1OCc1ccccc1)C2`, the AC35 was 13.9 µM. `Cc1c(Cl)cccc1NC(=O)CCC(=O)N/N=C/c1ccc[nH]1`: the AC35 is 4.44 µM. In the case of `O=C1NC2C(=CC(O)C(O)C2O)c2cc3c(cc21)OCO3` (configuration not stated), the AC35 is 3.67 µM. `O=C(Sc1cccc2cccnc12)c1ccccc1Br`: the AC35 was 10.5 µM. With `C[C@@H]1CN([C@@H](C)CO)C(=O)c2cccc(NS(=O)(=O)c3ccc(Cl)cc3)c2O[C@@H]1CN(C)Cc1ccc(C(=O)Nc2ccccc2N)cc1`, the AC35 is 9.9 µM. On to `COc1ccc(-c2nc3c(s2)CCc2onc(-c4ccc(OC)cc4)c2-3)cc1`, for which the AC35 was 13.3 µM. As for `CN(C)c1ccc(C=c2c3ccccc3n3c2c2c([n+]3C)CCCC2)cc1`, the figure is 3.96 µM.

As to `COc1ccc(C(CCNCc2ccc(OC(C)C)cc2)C(C)C)cc1` (configuration not stated), the AC35 is 21.8 µM.

Regarding `CC(=O)OC1CC(OC2C(O)CC(OC3C(O)CC(OC4CCC5(C)C(CCC6C5CCC5(C)C(C7=CC(=O)OC7)C(O)CC65O)C4)OC3C)OC2C)OC(C)C1OC1OC(CO)C(O)C(O)C1O` (configuration not stated), the AC35 was 2.35 µM. The value for `C[C@H]1CN([C@@H](C)CO)S(=O)(=O)c2ccc(C#Cc3ccncc3)cc2O[C@@H]1CN(C)C(=O)Nc1ccc2c(c1)OCO2` was 4.14 µM. The value for `BrC(=C\c1ccccc1)/C=N/n1cnnc1` was 14.5 µM; that for `O=C(N/N=C/c1ccc[nH]1)c1cc(-c2ccc(Cl)cc2)nc2ccccc12` was 15.2 µM. For `C[C@@H]1CN([C@@H](C)CO)C(=O)c2cc(NS(=O)(=O)c3ccc(Cl)cc3)ccc2O[C@@H]1CN(C)Cc1ccc(C(=O)Nc2ccccc2N)cc1`, the AC35 was 12.7 µM. `CN=c1scc(-c2cccs2)n1/N=C/c1ccccc1O`: the AC35 is 21.7 µM.

Regarding `COC(=O)C1=C(C)N(Cc2ccccc2C(F)(F)F)C(=NCc2ccc(OC)cc2)NC1c1ccc(C(F)(F)F)cc1` (configuration not stated), the AC35 was 13.5 µM. On to `CN1C(=O)c2cc(NC(=O)c3ccc(C(F)(F)F)cc3)ccc2OC[C@@H]2O[C@@H](CC(=O)NC3Cc4ccccc4C3)CC[C@H]21`, for which the AC35 was 4.86 µM. The value for `OC[C@H]1[C@@H](c2ccc(C#CC3CCCC3)cc2)[C@@H]2CN(CCC(F)(F)F)CCCCN12` was 18 µM; that for `CCc1nc(N)nc(N)c1-c1ccc(Cl)cc1` was 6.12 µM. On to `O=C(NC1CCCC1)N1CCCCN2[C@@H](CO)[C@@H](c3ccc(/C=C/c4ccccc4)cc3)[C@@H]2C1`, for which the AC35 was 13.6 µM. As for `C[C@H](CO)N1C[C@H](C)[C@H](CN(C)Cc2ccc(C(F)(F)F)cc2)Oc2ccc(NC(=O)CCCCCC(=O)Nc3ccccc3N)cc2CC1=O`, the AC35 was 11.5 µM. Consider `COc1ccc(CCCNC(=O)C2Cc3c(-c4ccc5c(c4)OCO5)ccnc3O2)cc1` (configuration not stated), for which the AC35 was 3.47 µM. `COc1ccc(OC)c(-c2nnc3n2N=C(c2ccc(OC)c(OC4CCOC4)c2)CS3)c1` (configuration not stated): the AC35 was 3.98 µM. `COc1cccc(Sc2ccccc2/C=N/NC(N)=O)c1`: the AC35 is 3.12 µM. Turning to `CC12CCC3C(CCC4(O)CC(O)CCC34C=NO)C1(O)CCC2C1=COC(=O)C1` (configuration not stated), the AC35 was 0.97 µM. Consider `Cc1[nH][nH]c(=O)c1C(c1c(C)[nH][nH]c1=O)c1cn(Cc2ccc(Cl)c(Cl)c2)c2ccccc12`, for which the AC35 was 11.3 µM. Turning to `C[C@H]1CN([C@@H](C)CO)C(=O)c2cc(NS(=O)(=O)c3ccc(Cl)cc3)ccc2O[C@H]1CN(C)Cc1ccc(Cl)c(Cl)c1`, the AC35 is 20.3 µM.

On to `Nc1nc(N)c2cc(Sc3ccc4ccccc4c3)ccc2n1`, for which the AC35 was 1.83 µM.

In the case of `C[C@H](CO)N1C[C@H](C)[C@@H](CN(C)Cc2ccc(Oc3ccccc3)cc2)Oc2ccc(NS(=O)(=O)c3ccc(Cl)cc3)cc2CC1=O`, the AC35 was 13 µM. Consider `Cc1nc(N)nc(N)c1CCCc1ccc(Cl)c(Cl)c1`, for which the AC35 was 1.81 µM. Take `S=c1[nH]nc(-c2cc(-c3ccccc3)n[nH]2)n1/N=C/C(Br)=C/c1ccccc1`: the AC35 is 13.2 µM. As for `Cc1cc2c(C(C)C)c(O)c(O)c(C=O)c2c(O)c1-c1c(C)cc2c(C(C)C)c(O)c(O)c(C=O)c2c1O`, the AC35 was 5.02 µM.

As for `CN(C[C@H]1N[C@@H](CO)[C@@H]1c1ccc(C2=CCCC2)cc1)C(=O)c1cccc(F)c1`, the AC35 was 3.82 µM. `COc1ccccc1NC(=O)N1CCCCN2[C@H](CO)[C@H](c3ccc(-c4cccc(C)c4)cc3)[C@H]2C1`: the AC35 is 10.9 µM.
